From ChEMBL document CHEMBL1201862, “PubChem BioAssay data set” (2004)
The source made the active and inactive calls.

Tests used:
Assay type in all cases: functional
Melanocortin receptor 4 = Melanocortin receptor 4 (Homo sapiens, UniProt P32245); assay: MC4R antagonist potency on cAMP, dose response, cell-based, TR-FRET, biased antagonists (AID 602298);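 further: antagonist potency against agonist-stimulated cAMP production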
[1] = nonselective inhibitors of cellular cAMP signaling, dose response, counter-screen for MC4R biased antagonist project, cell-based, TR-FRET cAMP detection (AID 602305);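 further: U2OS cells stimulated with forskolin near its EC80 as the cAMP inducer; potency is for inhibition of forskolin-stimulated cAMP signaling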
[2] = target: Protein kinase C theta type (Homo sapiens, UniProt Q04759); assay: Navigating the Kinome. Panel member name: PRKCQ
Sequence of Protein kinase C theta type (Q04759 whole entry): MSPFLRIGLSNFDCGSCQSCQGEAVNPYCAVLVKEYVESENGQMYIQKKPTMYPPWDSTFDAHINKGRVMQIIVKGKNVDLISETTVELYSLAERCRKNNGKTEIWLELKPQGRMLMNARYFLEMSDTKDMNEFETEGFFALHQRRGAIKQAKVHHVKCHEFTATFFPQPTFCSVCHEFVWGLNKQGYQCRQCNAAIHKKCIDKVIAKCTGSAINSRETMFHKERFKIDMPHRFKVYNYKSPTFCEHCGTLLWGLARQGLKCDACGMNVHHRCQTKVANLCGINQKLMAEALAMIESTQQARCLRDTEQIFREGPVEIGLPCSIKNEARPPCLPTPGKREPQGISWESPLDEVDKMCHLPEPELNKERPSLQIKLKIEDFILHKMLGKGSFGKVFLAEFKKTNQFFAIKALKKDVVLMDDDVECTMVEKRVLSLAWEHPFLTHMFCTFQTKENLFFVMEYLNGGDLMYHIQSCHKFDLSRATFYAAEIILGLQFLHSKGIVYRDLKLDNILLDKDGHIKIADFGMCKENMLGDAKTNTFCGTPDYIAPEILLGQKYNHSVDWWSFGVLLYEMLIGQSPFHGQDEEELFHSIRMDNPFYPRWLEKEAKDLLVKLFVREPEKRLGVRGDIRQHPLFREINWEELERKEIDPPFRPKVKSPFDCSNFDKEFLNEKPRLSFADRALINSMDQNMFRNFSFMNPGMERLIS

[3] = target: T1, Tyrosine-protein kinase receptor TYRO3 (Homo sapiens, UniProt Q06418);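 further: TYRO3 value obtained as one member of a kinome-wide profiling panel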
T1 sequence (Q06418 whole entry): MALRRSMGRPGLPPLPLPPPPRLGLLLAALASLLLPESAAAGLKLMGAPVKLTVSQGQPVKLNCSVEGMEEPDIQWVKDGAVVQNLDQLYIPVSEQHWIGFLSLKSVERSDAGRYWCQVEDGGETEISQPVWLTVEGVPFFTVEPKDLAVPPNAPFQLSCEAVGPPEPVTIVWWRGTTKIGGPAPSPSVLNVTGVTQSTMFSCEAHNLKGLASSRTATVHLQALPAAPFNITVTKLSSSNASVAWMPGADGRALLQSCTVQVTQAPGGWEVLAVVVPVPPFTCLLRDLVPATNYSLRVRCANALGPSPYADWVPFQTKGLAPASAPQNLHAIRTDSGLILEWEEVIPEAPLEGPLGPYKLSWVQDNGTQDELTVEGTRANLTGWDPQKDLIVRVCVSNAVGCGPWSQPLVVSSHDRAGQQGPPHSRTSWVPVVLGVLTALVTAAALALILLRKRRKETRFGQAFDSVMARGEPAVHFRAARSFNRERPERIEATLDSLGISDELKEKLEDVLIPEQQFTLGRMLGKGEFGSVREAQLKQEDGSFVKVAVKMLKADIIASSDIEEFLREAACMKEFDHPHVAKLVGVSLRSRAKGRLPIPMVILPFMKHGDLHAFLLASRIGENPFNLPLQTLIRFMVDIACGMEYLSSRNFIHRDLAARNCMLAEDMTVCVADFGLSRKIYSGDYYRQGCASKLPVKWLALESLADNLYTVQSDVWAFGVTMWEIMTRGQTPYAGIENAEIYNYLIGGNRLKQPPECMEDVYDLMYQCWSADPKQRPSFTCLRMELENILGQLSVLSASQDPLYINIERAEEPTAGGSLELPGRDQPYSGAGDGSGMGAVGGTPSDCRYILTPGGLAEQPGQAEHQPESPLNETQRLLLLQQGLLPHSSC

Aurora kinase A = target: T2, Aurora kinase A (Homo sapiens, UniProt O14965);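 further: value from the Navigating the Kinome kinase panel profiling, panel entry STK6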
T2 sequence (O14965 whole entry): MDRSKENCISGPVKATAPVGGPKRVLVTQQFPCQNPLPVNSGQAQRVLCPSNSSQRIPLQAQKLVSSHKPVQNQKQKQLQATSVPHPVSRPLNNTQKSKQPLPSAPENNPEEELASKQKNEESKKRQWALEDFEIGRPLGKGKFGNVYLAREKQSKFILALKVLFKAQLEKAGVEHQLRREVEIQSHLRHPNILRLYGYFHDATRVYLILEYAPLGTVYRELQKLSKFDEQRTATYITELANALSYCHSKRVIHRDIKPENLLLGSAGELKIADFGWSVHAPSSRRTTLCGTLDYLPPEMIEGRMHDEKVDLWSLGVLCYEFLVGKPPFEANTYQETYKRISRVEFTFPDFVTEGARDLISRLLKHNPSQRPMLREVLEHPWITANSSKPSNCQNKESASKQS

[4] = target: Platelet-derived growth factor receptor beta (Homo sapiens, UniProt P09619);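 further: value comes from a kinome panel, with PDGFRB tested as one panel member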
[5] = target: Vascular endothelial growth factor receptor 2 (Homo sapiens, UniProt P35968)
Sequence of Vascular endothelial growth factor receptor 2 (P35968 whole entry): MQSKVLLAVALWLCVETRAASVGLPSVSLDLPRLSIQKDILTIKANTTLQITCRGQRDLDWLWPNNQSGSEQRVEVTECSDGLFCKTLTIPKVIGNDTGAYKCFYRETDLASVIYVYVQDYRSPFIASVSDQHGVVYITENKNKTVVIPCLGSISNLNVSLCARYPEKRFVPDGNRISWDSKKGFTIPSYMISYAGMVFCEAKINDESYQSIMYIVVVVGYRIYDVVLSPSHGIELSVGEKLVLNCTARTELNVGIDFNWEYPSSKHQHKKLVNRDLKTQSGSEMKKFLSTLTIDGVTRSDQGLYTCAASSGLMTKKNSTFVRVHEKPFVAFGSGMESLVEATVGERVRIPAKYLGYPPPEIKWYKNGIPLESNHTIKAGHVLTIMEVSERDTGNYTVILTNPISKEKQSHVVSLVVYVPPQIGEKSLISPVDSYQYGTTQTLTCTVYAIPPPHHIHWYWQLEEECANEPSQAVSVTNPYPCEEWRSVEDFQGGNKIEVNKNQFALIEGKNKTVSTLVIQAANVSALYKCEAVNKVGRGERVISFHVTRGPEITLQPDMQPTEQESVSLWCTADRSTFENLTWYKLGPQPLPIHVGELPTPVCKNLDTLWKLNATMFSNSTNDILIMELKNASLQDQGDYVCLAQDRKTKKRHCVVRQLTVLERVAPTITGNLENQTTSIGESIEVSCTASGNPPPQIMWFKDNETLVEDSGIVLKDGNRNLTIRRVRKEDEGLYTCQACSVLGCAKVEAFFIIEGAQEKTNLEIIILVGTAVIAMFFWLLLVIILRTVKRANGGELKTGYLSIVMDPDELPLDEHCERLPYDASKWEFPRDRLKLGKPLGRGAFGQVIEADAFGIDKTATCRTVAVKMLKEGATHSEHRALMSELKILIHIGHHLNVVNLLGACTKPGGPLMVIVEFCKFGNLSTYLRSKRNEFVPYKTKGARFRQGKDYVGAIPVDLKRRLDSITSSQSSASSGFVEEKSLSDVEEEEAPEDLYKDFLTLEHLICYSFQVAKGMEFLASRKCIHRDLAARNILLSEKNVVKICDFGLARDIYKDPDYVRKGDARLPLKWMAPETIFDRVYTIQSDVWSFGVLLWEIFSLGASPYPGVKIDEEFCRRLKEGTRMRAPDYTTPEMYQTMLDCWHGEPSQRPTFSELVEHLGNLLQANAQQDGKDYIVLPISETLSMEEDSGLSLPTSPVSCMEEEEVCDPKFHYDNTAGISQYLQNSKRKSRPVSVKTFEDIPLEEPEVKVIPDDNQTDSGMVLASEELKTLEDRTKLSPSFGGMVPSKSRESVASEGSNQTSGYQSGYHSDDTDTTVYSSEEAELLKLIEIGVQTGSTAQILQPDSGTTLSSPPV

[6] = target: Dual specificity tyrosine-phosphorylation-regulated kinase 1B (Homo sapiens, UniProt Q9Y463); assay: Navigating the Kinome. Panel member name: DYRK1B
[7] = target: Cyclin-dependent kinase 19 (Homo sapiens, UniProt Q9BWU1); assay: Navigating the Kinome. Panel member name: CDC2L6
[8] = target: Cyclin-dependent kinase 9 (Homo sapiens, UniProt P50750);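 further: value from the CDK9 entry of a kinome-spanning kinase panel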
[9] = target: BDNF/NT-3 growth factors receptor (Homo sapiens, UniProt Q16620);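 further: NTRK2 measured as one member of a broad kinome-wide kinase profiling panel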
Sequence of BDNF/NT-3 growth factors receptor (Q16620 whole entry): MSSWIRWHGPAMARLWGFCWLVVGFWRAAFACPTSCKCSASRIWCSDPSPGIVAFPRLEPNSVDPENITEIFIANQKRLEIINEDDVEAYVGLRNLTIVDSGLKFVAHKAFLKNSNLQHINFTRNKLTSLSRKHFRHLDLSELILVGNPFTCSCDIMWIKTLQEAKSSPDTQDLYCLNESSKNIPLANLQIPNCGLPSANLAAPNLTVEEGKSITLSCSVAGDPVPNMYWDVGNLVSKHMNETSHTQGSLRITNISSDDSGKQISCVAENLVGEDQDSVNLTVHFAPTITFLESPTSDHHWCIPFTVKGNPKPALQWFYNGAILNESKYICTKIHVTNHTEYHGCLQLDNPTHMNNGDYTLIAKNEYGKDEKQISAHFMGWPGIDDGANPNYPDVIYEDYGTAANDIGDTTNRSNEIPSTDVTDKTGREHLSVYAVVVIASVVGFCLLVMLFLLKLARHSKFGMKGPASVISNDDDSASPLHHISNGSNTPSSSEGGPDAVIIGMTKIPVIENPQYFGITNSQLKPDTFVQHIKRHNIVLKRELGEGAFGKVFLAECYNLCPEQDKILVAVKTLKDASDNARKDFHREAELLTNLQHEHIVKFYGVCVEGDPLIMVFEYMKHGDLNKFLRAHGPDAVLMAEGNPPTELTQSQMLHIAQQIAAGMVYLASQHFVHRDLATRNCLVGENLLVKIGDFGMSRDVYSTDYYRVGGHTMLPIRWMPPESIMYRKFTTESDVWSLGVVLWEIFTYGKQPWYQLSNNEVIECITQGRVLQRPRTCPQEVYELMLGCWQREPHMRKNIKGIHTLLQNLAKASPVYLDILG

[10] = target: cAMP-dependent protein kinase catalytic subunit alpha (Homo sapiens, UniProt P17612)
[11] = target: Dual specificity protein kinase CLK4 (Homo sapiens, UniProt Q9HAZ1)
[12] = target: Macrophage colony-stimulating factor 1 receptor (Homo sapiens, UniProt P07333);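 further: value comes from the Navigating the Kinome screening panel, CSF1R member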
[13] = target: Dual specificity tyrosine-phosphorylation-regulated kinase 1A (Homo sapiens, UniProt Q13627);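 further: measured against DYRK1A as one member of a broad kinome profiling panel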
[14] = target: Dual specificity protein kinase CLK2 (Homo sapiens, UniProt P49760)
[15] = target: Dual specificity mitogen-activated protein kinase kinase 1 (Homo sapiens, UniProt Q02750); assay: Navigating the Kinome. Panel member name: MAP2K1
[16] = target: 5'-AMP-activated protein kinase catalytic subunit alpha-1 (Homo sapiens, UniProt Q13131)
[17] = target: Casein kinase I isoform alpha (Homo sapiens, UniProt P48729)
Activated CDC42 kinase 1 = Activated CDC42 kinase 1 (Homo sapiens, UniProt Q07912); assay: Navigating the Kinome. Panel member name: ACK1
[18] = target: Cyclin-dependent kinase 5 (Homo sapiens, UniProt Q00535);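 further: CDK5 measured as one member of a kinase profiling panel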
[19] = target: T3, cAMP-dependent protein kinase catalytic subunit PRKX (Homo sapiens, UniProt P51817)
T3 sequence (P51817 whole entry): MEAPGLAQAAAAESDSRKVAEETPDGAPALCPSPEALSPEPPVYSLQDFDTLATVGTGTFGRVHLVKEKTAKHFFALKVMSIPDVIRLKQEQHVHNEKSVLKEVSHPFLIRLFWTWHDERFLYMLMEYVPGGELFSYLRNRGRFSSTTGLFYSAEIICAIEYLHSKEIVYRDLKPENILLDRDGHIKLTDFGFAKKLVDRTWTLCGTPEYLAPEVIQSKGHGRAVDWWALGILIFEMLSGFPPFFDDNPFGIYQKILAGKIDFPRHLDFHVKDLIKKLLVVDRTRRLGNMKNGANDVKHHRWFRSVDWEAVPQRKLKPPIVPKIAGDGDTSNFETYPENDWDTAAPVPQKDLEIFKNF

Focal adhesion kinase 1 = Focal adhesion kinase 1 (Homo sapiens, UniProt Q05397);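 further: measured as one member of a kinome panel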
[20] = target: Platelet-derived growth factor receptor alpha (Homo sapiens, UniProt P16234); assay: Navigating the Kinome. Panel member name: PDGFRA
[21] = target: Macrophage-stimulating protein receptor (Homo sapiens, UniProt Q04912); assay: Navigating the Kinome. Panel member name: MST1R
Sequence of Macrophage-stimulating protein receptor (Q04912 25-304 limits assumed): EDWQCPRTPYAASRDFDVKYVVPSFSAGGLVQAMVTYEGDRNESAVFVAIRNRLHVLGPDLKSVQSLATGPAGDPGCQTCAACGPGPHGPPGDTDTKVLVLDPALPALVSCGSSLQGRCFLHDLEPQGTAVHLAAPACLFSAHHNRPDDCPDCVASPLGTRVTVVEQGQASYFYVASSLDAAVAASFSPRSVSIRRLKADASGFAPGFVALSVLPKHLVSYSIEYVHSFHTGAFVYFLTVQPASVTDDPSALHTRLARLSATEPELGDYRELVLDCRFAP
Sequence of Macrophage-stimulating protein receptor (Q04912 310-1400 limits assumed): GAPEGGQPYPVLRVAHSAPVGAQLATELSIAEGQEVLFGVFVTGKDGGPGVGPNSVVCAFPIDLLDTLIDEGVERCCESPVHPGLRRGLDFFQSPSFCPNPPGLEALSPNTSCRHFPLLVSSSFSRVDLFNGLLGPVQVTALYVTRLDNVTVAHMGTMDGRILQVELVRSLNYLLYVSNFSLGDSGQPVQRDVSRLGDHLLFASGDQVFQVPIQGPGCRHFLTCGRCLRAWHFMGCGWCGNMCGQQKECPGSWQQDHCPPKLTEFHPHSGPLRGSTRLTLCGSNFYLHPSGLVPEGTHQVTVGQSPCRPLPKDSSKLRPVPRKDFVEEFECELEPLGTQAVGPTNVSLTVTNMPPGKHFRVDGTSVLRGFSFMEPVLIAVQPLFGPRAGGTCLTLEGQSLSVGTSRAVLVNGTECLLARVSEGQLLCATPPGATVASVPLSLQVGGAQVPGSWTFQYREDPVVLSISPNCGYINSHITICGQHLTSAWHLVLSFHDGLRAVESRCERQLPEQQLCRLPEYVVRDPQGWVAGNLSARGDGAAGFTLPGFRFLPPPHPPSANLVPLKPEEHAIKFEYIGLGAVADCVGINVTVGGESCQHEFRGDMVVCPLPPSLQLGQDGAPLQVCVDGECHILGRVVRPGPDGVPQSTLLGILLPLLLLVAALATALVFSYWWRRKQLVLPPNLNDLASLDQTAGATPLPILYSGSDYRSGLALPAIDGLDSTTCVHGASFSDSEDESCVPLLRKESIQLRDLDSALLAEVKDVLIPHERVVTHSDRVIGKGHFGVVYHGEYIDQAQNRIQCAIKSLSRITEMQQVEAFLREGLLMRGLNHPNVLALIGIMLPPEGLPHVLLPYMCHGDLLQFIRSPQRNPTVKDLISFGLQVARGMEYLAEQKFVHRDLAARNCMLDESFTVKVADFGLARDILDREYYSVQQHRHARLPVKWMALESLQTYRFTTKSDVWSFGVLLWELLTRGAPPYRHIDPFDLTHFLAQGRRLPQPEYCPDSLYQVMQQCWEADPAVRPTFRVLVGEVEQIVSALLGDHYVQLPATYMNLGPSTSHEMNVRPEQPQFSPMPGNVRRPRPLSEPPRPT

[22] = target: Dual specificity mitogen-activated protein kinase kinase 2 (Homo sapiens, UniProt P36507); assay: Navigating the Kinome. Panel member name: MAP2K2
Sequence of Dual specificity mitogen-activated protein kinase kinase 2 (P36507 whole entry): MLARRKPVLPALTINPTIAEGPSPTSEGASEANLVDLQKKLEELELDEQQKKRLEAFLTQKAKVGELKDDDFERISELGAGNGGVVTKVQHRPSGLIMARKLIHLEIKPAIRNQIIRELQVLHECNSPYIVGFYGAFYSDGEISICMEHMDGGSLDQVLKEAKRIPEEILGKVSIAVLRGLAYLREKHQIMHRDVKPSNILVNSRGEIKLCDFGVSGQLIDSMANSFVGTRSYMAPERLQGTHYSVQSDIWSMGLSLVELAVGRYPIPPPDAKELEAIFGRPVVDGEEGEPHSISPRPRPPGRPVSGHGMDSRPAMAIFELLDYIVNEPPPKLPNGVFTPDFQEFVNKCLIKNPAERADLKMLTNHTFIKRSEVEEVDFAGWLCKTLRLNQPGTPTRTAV

[23] = target: Leukocyte tyrosine kinase receptor (Homo sapiens, UniProt P29376); assay: Navigating the Kinome. Panel member name: LTK

Sequence of Melanocortin receptor 4 (P32245 whole entry): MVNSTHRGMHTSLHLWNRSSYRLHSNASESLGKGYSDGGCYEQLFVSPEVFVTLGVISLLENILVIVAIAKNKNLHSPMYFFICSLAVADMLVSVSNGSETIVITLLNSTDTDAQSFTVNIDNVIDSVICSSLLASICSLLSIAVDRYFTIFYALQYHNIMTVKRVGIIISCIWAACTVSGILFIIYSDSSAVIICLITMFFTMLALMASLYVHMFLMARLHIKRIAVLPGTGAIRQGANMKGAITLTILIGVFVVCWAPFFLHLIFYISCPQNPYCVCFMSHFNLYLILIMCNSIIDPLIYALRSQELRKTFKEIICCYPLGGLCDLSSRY

Q: For `O=C(Oc1cccc(C(=S)N2CCOCC2)c1)c1ccc([N+](=O)[O-])cc1[N+](=O)[O-]`, which IC50 (Melanocortin receptor 4) is on record?
A: Its IC50 is > 64.6 µM (inactive).

Q: What about the IC50 [1] of the same molecule?
A: Its IC50 is > 64.6 µM (inactive).

Q: Which Ki [2] does the source give for `O=C1NCc2ccc(-c3ccccc3)cc21` here?
A: The Ki was > 100 µM (inactive).

Q: What about the Ki [3] of the same molecule?
A: Its Ki is 79.4 µM (active).

Q: What about the Ki (Aurora kinase A) of the same molecule?
A: The Ki was > 63.1 µM (inactive).

Q: What about the Ki [4] of the same molecule?
A: Its Ki is > 79.4 µM (inactive).

Q: What about the Ki [5] of the same molecule?
A: Its Ki is > 100 µM (inactive).

Q: What about the Ki [6] of the same molecule?
A: The Ki was 100 µM (active).

Q: What about the Ki [7] of the same molecule?
A: Its Ki is > 100 µM (inactive).

Q: What about the Ki [8] of the same molecule?
A: The Ki was > 63.1 µM (inactive).

Q: And the Ki [9]?
A: Its Ki is 25.1 µM (active).

Q: What about the Ki [10] of the same molecule?
A: Its Ki is > 50.1 µM (inactive).

Q: And the Ki [11]?
A: The Ki was 1.58 µM (active).

Q: And the Ki [12]?
A: The Ki was > 100 µM (inactive).

Q: What about the Ki [13] of the same molecule?
A: The Ki was > 79.4 µM (inactive).

Q: What does the source list for `CN(C)CC1CCn2cc(c3ccccc32)C2=C(C(=O)NC2=O)c2cn(c3ccccc23)CCO1` (stereo not drawn)?
A: Ki [14]: 0.158 µM (active); Ki [15]: > 3.16 µM (inactive); Ki [16]: > 3.16 µM (inactive); Ki [17]: > 3.98 µM (inactive); Ki (Activated CDC42 kinase 1): > 3.98 µM (inactive); Ki [5]: 2 µM (active); Ki [18]: > 3.16 µM (inactive); Ki [19]: > 3.16 µM (inactive); Ki (Focal adhesion kinase 1): > 6.31 µM (inactive); Ki [20]: > 2.51 µM (inactive); Ki [9]: > 3.98 µM (inactive); Ki [10]: 0.631 µM (active); Ki [21]: 0.2 µM (active); Ki [22]: > 3.98 µM (inactive); Ki [13]: > 2 µM (inactive); Ki [23]: > 2.51 µM (inactive)

Q: Which IC50 (Melanocortin receptor 4) does the source give for `COC(=O)CSc1nnc(-c2ccc(S(=O)(=O)NCc3ccccc3Cl)cc2)o1` here?
A: The IC50 was > 64.6 µM (inactive).

Q: And the IC50 [1]?
A: The IC50 was > 64.6 µM (inactive).
